Read-outs that look alike come from different tables or passages of the source.
How the values were obtained:
[1] = relative to calcitriol; cited from earlier work
MDS [2] = details: 75 mg/m^2/day subcutaneously for 7 days out of 28; cited from earlier work
MDS [3] = details: cited from earlier work
refractory malignancies = details: weekly HDPA; cited from earlier work
MDS [4] = details: cited from earlier work; remark: listed apart in the source
[5] = tested on: low risk MDS and refractory anemia unresponsive to erythropoietin; experiment: Phase 2 trial of high dose pulse administration of calcitriol; type: in vivo, human
Experimental: Patients having low risk MDS and refractory anemia unresponsive to erythropoietin were entered into a Phase 2 trial to evaluate the effect of high dose pulse administration of calcitriol. These patients are red blood cell transfusion dependent because of severe anemia. Patients were administered weekly oral calcitriol at a dose of 45 μg for 20 consecutive weeks. The calcitriol was formulated in a composition containing the following excipients with the amount given in approximate percentage by weight: 65% MIGLYOL 812N®, 30% […] 44/14®, 5% vitamin-E TPGS and about 0.05% each of butylated hydroxytoluene (BHT) and butylated hydroxyanisole (BHA).

[6] = Patient #1, 45 μg oral weekly for 20 weeks
[7] = Patient #3, 45 μg oral weekly for 20 weeks

Compound: C=C1/C(=C\C=C2/CCC[C@]3(C)[C@@H]([C@H](C)/C=C/[C@@H](O)C4CC4)CC[C@@H]23)C[C@@H](O)C[C@@H]1O [calcipotriol]
- calcemic index [1]: about 0.01

Compound: Nc1ncn([C@@H]2O[C@H](CO)[C@@H](O)[C@H]2O)c(=O)n1 [5-azacytidine]
- patients with a complete response (MDS [2]): 7%
- patients with at least a partial response (MDS [2]): ~60%

Compound: EPO: erythropoietin, hematopoietic growth factor
- subjects who respond (MDS [3]; EPO administered with G-CSF): about 40%
- subjects who respond (MDS [3]; EPO alone): about 20%
- rate of responsiveness (MDS [3]; refractory anemia and refractory anemia with ring sideroblasts): 21%
- rate of responsiveness (MDS [3]; refractory anemia with excess blasts): 8%

Compound: C=C1/C(=C/C=C2/CCC[C@@]3(C)C2CC[C@@H]3[C@H](C)CCCC(C)(C)O)C[C@@H](O)C[C@@H]1O (stereo in doubt) [calcitriol, 1α,25-dihydroxycholecalciferol]
- dose-limiting toxicity (refractory malignancies): no dose-limiting toxicity
- mean peak calcitriol levels (refractory malignancies): within the therapeutic range
- calcemic index [1]: 1
- dose at which hypercalcemia was induced (MDS [4]; daily administration (Koeffler et al.)): 2 µg/day
- maximum dose administered without hypercalcemia (MDS [4]; subjects with MDS (Mellibovsky et al.)): 0.75 µg/day
- protocol defined response [5, 6]: minor response (A minor erythroid responder is a subject with a baseline hemoglobin of less than 11 g/dL who experiences an increase of 1 to 2 g/dL from baseline)
- rise in hemoglobin as compared to baseline [5, 6]: more than one
- decrease in required red blood cell transfusions as compared to baseline ([5]; Patient #2, 45 μg oral weekly for 20 weeks): 50%
- protocol defined response [5, 7]: major response (A major erythroid responder is a subject with a baseline hemoglobin of less than 11 g/dL who experiences an increase of greater than or equal to 2 g/dL from the baseline)
- rise in hemoglobin as compared to baseline [5, 7]: more than two

From patent US20070027120A1, “Methods of using vitamin D compounds in the treatment of myelodysplastic syndromes” (priority 2002, published 2007)
